# Experimental data as given in ChEMBL document CHEMBL1138964, “Synthesis and efficacy of 1-[bis(4-fluorophenyl)-methyl]piperazine derivatives for acetylcholinesterase inhibition, as a stimulant of central cholinergic neurotransmission in Alzheimer's disease” (Bioorg Med Chem Lett, 2006).
# What was measured:
# Acetylcholinesterase [1] = molecular target: Acetylcholinesterase (Electrophorus electricus, UniProt O42275); assay: Inhibition of electric eel AchE
# Acetylcholinesterase [2] = molecular target: T1, Acetylcholinesterase (Rattus norvegicus, UniProt P37136); assay: Inhibition of rat brain homogenate AchE
# T1 sequence (P37136 whole entry): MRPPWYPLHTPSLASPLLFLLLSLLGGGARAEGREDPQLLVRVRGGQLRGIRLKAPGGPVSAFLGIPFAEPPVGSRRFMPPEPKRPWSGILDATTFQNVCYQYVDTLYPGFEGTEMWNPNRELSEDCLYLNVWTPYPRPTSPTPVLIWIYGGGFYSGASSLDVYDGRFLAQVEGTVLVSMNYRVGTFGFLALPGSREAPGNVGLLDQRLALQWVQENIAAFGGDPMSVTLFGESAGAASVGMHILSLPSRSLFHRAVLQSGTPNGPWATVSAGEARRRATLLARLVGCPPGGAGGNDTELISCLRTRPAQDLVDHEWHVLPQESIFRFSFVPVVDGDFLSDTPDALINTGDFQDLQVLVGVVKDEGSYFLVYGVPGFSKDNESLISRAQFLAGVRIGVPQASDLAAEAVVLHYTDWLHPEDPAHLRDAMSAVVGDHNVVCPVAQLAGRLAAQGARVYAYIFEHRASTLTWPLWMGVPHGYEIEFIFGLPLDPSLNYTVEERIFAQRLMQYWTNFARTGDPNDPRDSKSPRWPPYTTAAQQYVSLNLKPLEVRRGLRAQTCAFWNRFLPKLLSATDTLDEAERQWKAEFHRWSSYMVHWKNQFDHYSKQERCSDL
# Rattus norvegicus [3] = assay: Antiamnesic effect against scopolamine-induced memory loss in passive avoidance step-down task paradigm in rat assessed as number of mistakes at 0.1 mg/kg, ip; format: functional; conditions: route intraperitoneal
# Acetylcholinesterase [4] = molecular target: Acetylcholinesterase (Homo sapiens, UniProt P22303); assay: Inhibition of human serum AchE
# Rattus norvegicus [5] = assay: Antiamnesic effect in passive avoidance step-down task paradigm in rat assessed as number of mistakes at 0.4 mg/kg, ip; format: functional; conditions: route intraperitoneal
# Chain of Acetylcholinesterase (Homo sapiens, UniProt P22303) (P22303 whole entry): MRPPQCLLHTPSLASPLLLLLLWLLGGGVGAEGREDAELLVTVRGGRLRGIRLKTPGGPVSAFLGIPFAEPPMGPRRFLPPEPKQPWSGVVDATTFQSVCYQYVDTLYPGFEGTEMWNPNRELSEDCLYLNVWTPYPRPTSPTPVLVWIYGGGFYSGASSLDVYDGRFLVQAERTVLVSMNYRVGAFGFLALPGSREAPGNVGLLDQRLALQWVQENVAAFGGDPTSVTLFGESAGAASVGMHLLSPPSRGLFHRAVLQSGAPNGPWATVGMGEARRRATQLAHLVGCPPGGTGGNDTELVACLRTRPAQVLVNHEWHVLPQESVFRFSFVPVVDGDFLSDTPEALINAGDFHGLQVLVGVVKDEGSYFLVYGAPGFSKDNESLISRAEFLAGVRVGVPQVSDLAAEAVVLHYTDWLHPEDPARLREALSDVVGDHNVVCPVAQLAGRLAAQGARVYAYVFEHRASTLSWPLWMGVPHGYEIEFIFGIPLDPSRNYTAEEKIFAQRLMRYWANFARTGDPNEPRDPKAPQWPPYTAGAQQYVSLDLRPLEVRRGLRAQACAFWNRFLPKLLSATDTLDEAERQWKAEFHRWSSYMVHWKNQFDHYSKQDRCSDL
# Chain of Acetylcholinesterase (Electrophorus electricus, UniProt O42275) (O42275 whole entry): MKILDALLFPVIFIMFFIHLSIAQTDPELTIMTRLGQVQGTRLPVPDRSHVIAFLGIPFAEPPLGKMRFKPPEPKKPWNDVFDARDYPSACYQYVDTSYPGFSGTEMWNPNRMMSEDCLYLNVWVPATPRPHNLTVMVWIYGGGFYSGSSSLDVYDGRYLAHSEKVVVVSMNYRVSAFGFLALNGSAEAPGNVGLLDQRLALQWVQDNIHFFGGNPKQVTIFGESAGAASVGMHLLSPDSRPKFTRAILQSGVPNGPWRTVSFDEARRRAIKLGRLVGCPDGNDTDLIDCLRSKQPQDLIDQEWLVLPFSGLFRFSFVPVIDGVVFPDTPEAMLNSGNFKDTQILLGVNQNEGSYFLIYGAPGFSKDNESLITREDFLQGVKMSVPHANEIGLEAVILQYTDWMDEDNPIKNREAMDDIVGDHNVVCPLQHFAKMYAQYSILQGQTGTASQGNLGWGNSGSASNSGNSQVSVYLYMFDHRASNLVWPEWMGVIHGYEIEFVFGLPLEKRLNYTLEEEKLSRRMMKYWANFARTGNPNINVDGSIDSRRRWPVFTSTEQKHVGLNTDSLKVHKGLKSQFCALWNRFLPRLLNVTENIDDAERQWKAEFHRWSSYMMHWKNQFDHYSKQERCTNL
Structure (SMILES),IC50 (Acetylcholinesterase [1]),IC50 (Acetylcholinesterase [2]; read-out: IC50),Activity (Rattus norvegicus [3]),IC50 (Acetylcholinesterase [4]),IC50 (Acetylcholinesterase [2]),Activity (Rattus norvegicus [5])
Fc1ccc(C(c2ccc(F)cc2)N2CCN(CCN3CCOCC3)CC2)cc1,253 nM,200 nM,16,284 nM,–,–
COc1cc(Br)c(CN2CCN(C(c3ccc(F)cc3)c3ccc(F)cc3)CC2)cc1OC,715 nM,–,34,1010 nM,Not Active,–
Cc1cc2c(cc1CN1CCN(C(c3ccc(F)cc3)c3ccc(F)cc3)CC1)OCO2,1140 nM,–,33,1340 nM,Not Active,–
Fc1ccc(C(c2ccc(F)cc2)N2CCN(CCN3CCCCC3)CC2)cc1,135 nM,93.7 nM,12,126 nM,–,–
CN1[C@@H]2C[C@@H](OC(=O)[C@H](CO)c3ccccc3)C[C@H]1[C@@H]1O[C@@H]12 [SCOPOLAMINE],–,–,–,–,–,35
Cc1nc2ccccn2c(=O)c1CCN1CCN(C(c2ccc(F)cc2)c2ccc(F)cc2)CC1,2130 nM,–,32,3200 nM,Not Active,–
N#Cc1ccccc1-c1ccc(CN2CCN(C(c3ccc(F)cc3)c3ccc(F)cc3)CC2)cc1,70.5 nM,37.5 nM,11,73.6 nM,–,–
CN(C)C(=O)Oc1cccc([N+](C)(C)C)c1 [NEOSTIGMINE METHYLSULFATE],41100 nM,37.5 nM,–,–,–,–
Fc1ccc(C(c2ccc(F)cc2)N2CCN(CCN3CCCC3)CC2)cc1,17.6 nM,18.7 nM,10,21 nM,–,–
CC1=C(CCN2CCN(C(c3ccc(F)cc3)c3ccc(F)cc3)CC2)C(=O)C2CCCCC2=N1 (stereo not given),1210 nM,–,34,1070 nM,Not Active,–
